Columns and labels:
[1] = biological target: 5-hydroxytryptamine receptor 4 (Rattus norvegicus) (UniProt Q62758); assay: Compound was tested against 5-HT4 receptor through antagonism of 5-HT mediated relaxation of rat, carbachol contracted esophageal muscularis mucosae; assay type: functional
[2] = biological target: 5-hydroxytryptamine receptor 4 (Rattus norvegicus, UniProt Q62758); assay: Compound was tested against 5-HT4 receptor through agonism of 5-HT mediated relaxation of rat, carbachol contracted esophageal muscularis mucosae; assay type: functional
[3] = biological target: 5-hydroxytryptamine receptor 4 (Cavia porcellus, UniProt O70528); assay: Compound was tested for binding affinity against 5-HT4 receptor in guinea pig striata using [3H]GR-113808 as radioligand
Sequence of 5-hydroxytryptamine receptor 4 (Cavia porcellus, UniProt O70528) (O70528 whole entry): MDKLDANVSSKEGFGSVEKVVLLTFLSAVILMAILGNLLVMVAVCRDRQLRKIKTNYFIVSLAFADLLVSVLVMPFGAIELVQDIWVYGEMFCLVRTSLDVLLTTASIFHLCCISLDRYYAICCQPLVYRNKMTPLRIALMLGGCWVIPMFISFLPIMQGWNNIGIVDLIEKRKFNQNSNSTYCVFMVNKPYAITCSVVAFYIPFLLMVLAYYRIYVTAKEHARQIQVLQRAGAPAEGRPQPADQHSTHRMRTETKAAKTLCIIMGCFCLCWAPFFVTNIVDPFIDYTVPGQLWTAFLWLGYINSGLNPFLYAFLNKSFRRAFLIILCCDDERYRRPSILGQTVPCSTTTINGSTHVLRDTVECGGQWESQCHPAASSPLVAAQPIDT

Sequence of 5-hydroxytryptamine receptor 4 (Rattus norvegicus) (Q62758 whole entry): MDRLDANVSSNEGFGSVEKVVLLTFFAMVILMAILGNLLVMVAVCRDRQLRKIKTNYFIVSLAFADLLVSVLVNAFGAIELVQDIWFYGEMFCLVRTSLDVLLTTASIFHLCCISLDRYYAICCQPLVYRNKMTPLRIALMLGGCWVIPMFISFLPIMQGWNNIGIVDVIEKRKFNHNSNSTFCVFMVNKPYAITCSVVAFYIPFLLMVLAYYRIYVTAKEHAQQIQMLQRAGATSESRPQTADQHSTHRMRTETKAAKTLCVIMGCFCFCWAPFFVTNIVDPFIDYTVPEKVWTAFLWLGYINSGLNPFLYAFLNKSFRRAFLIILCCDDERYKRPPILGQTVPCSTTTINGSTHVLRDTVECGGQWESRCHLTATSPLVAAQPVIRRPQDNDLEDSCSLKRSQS
Sequence of 5-hydroxytryptamine receptor 4 (Rattus norvegicus, UniProt Q62758) (Q62758 whole entry): as above

| SMILES | pKb [1] | EC50 [2] [nM] | Ki [3] [nM] |
| --- | --- | --- | --- |
| COc1cc(COc2cc(N)c(Cl)cc2C(=O)CCCCN2CCC(NS(C)(=O)=O)CC2)cc(OC)c1 | 8.4 | – | – |
| COc1cc(COc2cc(N)c(Cl)cc2C(=O)CCCCN2CCCCC2)cc(OC)c1 | 8.5 | – | – |
| COc1cc(COc2cc(N)c(Cl)cc2C(=O)CCCCN2CCC(c3ccccc3)CC2)cc(OC)c1 | 7.7 | – | – |
| COc1ccc(COc2cc(N)c(Cl)cc2C(=O)CCCCN2CCCCC2)cc1OC | 8.5 | – | – |
| COc1ccc(COc2cc(N)c(Cl)cc2C(=O)CCCCN2CCCCC2)cc1 | 8.4 | – | – |
| CCCOc1cc(N)c(Cl)cc1C(=O)CCCCN1CCCCC1 | – | 2000 | – |
| COc1cc(COc2cc(N)c(Cl)cc2C(=O)CCCCN2CCC(C(N)=O)CC2)cc(OC)c1 | 8.4 | – | – |
| COc1cc(N)c(Cl)cc1C(=O)CCCCN1CCCCC1 | – | 39.8 | – |
| Cn1cc(C(=O)OCC2CCN(CCNS(C)(=O)=O)CC2)c2ccccc21 | 9 | – | – |
| CS(=O)(=O)NCCN1CCC(CCC(=O)c2cc(Cl)c(N)cc2OCc2ccccc2)CC1 | 8.1 | – | 1.78 |
| COc1ccc(CCOc2cc(N)c(Cl)cc2C(=O)CCCCN2CCCCC2)cc1OC | 6.8 | – | – |
| COc1cc(COc2cc(N)c(Cl)cc2C(=O)CCCCN2CCC(NC(N)=O)CC2)cc(OC)c1 | 8.5 | – | – |
| CCOc1cc(N)c(Cl)cc1C(=O)CCCCN1CCCCC1 | < 7 | – | – |
| CCCCN1CCC(COC(=O)c2cc(Cl)c(N)c3c2OCCO3)CC1 | – | – | 0.0129 |

Further lines, results first:

| pKb [1] | EC50 [2] [nM] | Ki [3] [nM] | SMILES |
| --- | --- | --- | --- |
| 8.3 | – | – | COc1cc(COc2cc(N)c(Cl)cc2C(=O)CCCCN2CCC(C)CC2)cc(OC)c1 |
| 8.9 | – | 0.479 | CCCCN1CCC(CCC(=O)c2cc(Cl)c(N)cc2OCc2cc(OC)cc(OC)c2)CC1 |
| 9.2 | – | 0.741 | COc1cc(COc2cc(N)c(Cl)cc2C(=O)CCC2CCN(CCNS(C)(=O)=O)CC2)cc(OC)c1 |
| 7.7 | – | – | CCCC1CCN(CCCCC(=O)c2cc(Cl)c(N)cc2OCc2cc(OC)cc(OC)c2)CC1 |
| 8.1 | – | – | COc1cc(COc2cc(N)c(Cl)cc2C(=O)CCCCN2CCC(CCNS(C)(=O)=O)CC2)cc(OC)c1 |
| 8.8 | – | 0.339 | COc1cc(COc2cc(N)c(Cl)cc2C(=O)CCC2CCN(CCCNS(C)(=O)=O)CC2)cc(OC)c1 |
| 8.9 | – | – | COc1cc(COc2cc(N)c(Cl)cc2C(=O)CCCCN2CCC(CNS(C)(=O)=O)CC2)cc(OC)c1 |
| 9.1 | – | 0.813 | CCCCCN1CCC(CCC(=O)c2cc(Cl)c(N)cc2OCc2cc(OC)cc(OC)c2)CC1 |
| 8.4 | – | – | COc1cc(COc2cc(N)c(Cl)cc2C(=O)CCCCN2CCC(OC)CC2)cc(OC)c1 |
| 8.3 | – | – | COc1cc(COc2cc(N)c(Cl)cc2C(=O)CCCCN2CCC(O)CC2)cc(OC)c1 |
| 9.1 | – | 0.468 | COc1cc(COc2cc(N)c(Cl)cc2C(=O)CCC2CCN(CCN(C)S(C)(=O)=O)CC2)cc(OC)c1 |

Source: ChEMBL document CHEMBL1152051, “Synthesis and preliminary pharmacological evaluation of 2-benzyloxy substituted aryl ketones as 5-HT4 receptor antagonists” (Bioorg Med Chem Lett, 1994)
